Source: PMC6234764, “First Insights Into Within Host Translocation of the Bacillus cereus Toxin Cereulide Using a Porcine Model” (Frontiers in Microbiology, 2018)
Read-outs that look alike come from different tables or passages of the source.

What was measured:
[1] = Excretion of cereulide in feces and urine, SIDA-MS; format: in vivo, pig
Experimental: (§1) A total of four experiments, each including four treated animals and one control pig, was performed to investigate the action of cereulide on piglets after oral intake of cereulide. Pigs were either challenged orally with a single dose (acute trials) or with daily over a period of 7 days (chronic trial) (see Table 1). One hour before cereulide toxin administration blood samples were taken by puncturing the anterior Vena cava and piglets were weighed for calculation of the cereulide concentration (t = 0 h). In the intoxication experiment with 150 μg kg^-1 blood samples were taken 68 h before the experiment to reduce the distress for the animals at the start day of the experiments. Blood-chemical, immunological, and histological analyses of selected organs as well as quantification of cereulide in organs, tissues, urine and feces were carried out as detailed below.
(§2) On body weight calculated amounts of cereulide, dissolved in ethanol, were mixed with milk (UHT milk; 3.5% fat), and fed to four piglets. Control piglets were fed with milk supplemented with similar ethanol concentrations as the experimental piglets. The experiment started after the uptake of the whole milk cereulide mixture. The milk was checked for bacterial contamination prior to the experiment.
(§3) After oral administration of cereulide, piglets were monitored for unusual behavior and examined physically with special respect on rectal body temperature as well as pulse and respiration rate, every 2–3 h. Blood samples were taken from the Vena cava cranialis. Urine and feces were collected during the whole experiment and stored at -80°C. After the experiment pigs were anaesthetized by intramuscular injection of a bolus of ketamine (10 mg kg^-1) and azaperone (1.3 mg kg^-1). When sedation was deep enough cerebrospinal fluid (liquor) was taken by lumbar puncture. Finally, pigs were euthanized by intracardial injection of T61®. Animals were then necropsied and parts of the following organs, tissues or body fluids were taken for SIDA-MS analysis: liver, lung, heart, kidney, brain, spleen, small and large intestine, lymph nodes, gastric as well as intestinal contents, skeletal muscle, and abdominal and subcutaneous fat. Samples of liver, lung, heart, kidney, brain, spleen, small, and large intestine were collected for histological analysis.
(§4) Collected blood samples, urine, feces, tissue and organs were freeze dried and stored at -80°C until analysis. Before extraction, liquid nitrogen was added to frozen samples and they were crushed to a powder using a mortar. Ten microgram ^13C6-cereulide (for organs and feces) or 5 μg ^13C6-cereulide (for urine and blood) was added and samples were incubated on a rocking table for 2 h. Samples were solved in ethanol (volume depending on weight 10–40 mL), incubated 14 h, and the supernatants were collected by centrifugation (RT, 8500 g, 10 min). For pre-purification the ethanolic extract was 1:5 diluted with water and applied onto the top of a methanol activated C18-SPE cartridge (6 mL; 1 g; Strata C18-E; Phenomenex, Aschaffenburg, Germany). The cartridge was washed with 6 mL water followed by methanol/water (4 mL; 70/30, v/v) and target compounds were eluted with ethanol (2.5 mL). Finally, samples were membrane filtrated (0.2 μm; PTFE membrane; Phenomenex, Aschaffenburg, Germany) and analyzed by means of LC-MS/MS as described previously ([Bauer et al., 2010]). In brief, LC-MS/MS analysis was performed using an Agilent 1200 HPLC-system connected to the API 4000QTrap LC-MS/MS (Applied Biosystems, Darmstadt, Germany) running in the positive electrospray ionization (ESI^+, +5500 V) mode. Zero grade air served as nebulizer gas (45 psi) and turbo gas (425°C) for solvent drying (55 psi), nitrogen was used as curtain (20 psi) and collision gas (8.7 × 10^-7 psi), respectively. Both quadrapoles were set at unit resolution. […]

[2] = tested on: Min6 cells and whole mouse pancreatic islets; settings: ref Vangoitsenhoven et al., 2014; cited from earlier work
Experimental: Low concentrations of cereulide can cause dysfunction in beta-cell lines ([Vangoitsenhoven et al., 2014]) and have been reported to be detrimental toward isolated porcine pancreatic Langerhans islets ([Virtanen et al., 2008]). Using Min6 cells and whole mouse pancreatic islets as model, it could be shown that low concentrations of cereulide (0.25–0.5 ng/mL) are directly effecting the insulin secretory machinery ([Vangoitsenhoven et al., 2014]). Based on their in vitro findings the authors hypothesized that cereulide may contribute to the rise of prevalence of diabetes observed worldwide, as a ...

[3] = Cereulide in organs and tissues, SIDA-MS; format: in vivo, pig; settings: for tissue level at time at 48 h / tissue level at time at 168 h: pig; for tissue level at time at 168 h: 10 ug/kg
Experimental: as §1, §2, §3, §4

[4] = daily oral dose 10 μg kg^-1 over 7 days
[5] = daily oral dose 10 μg kg^-1 for 7 days, SIDA-MS

SMILES: CC(C)C[C@H]1OC(=O)[C@H](C(C)C)NC(=O)[C@H](C(C)C)OC(=O)[C@@H](C)NC(=O)[C@@H](CC(C)C)OC(=O)[C@H](C(C)C)NC(=O)[C@H](C(C)C)OC(=O)[C@@H](C)NC(=O)[C@@H](CC(C)C)OC(=O)[C@H](C(C)C)NC(=O)[C@H](C(C)C)OC(=O)[C@@H](C)NC1=O [cereulide]
- Cereulide concentration in feces ([1]; daily oral dose 10 μg kg^-1, until end of trial on day 7): 0.02 to 0.29 μg cereulide g^-1 feces
- Detectability of cereulide in urine [1, 4]: no cereulide was detectable
- Time until cereulide became detectable in fecal samples [1, 4]: 2 to 3 days
- Amount of cereulide excreted with the feces ([1]; one pig (13 kg), 30 μg kg^-1 (total intake 390 μg), after 12 h): 20.90 µg
- Amount of cereulide excreted with the feces ([1]; one pig (13 kg), 30 μg kg^-1 (total intake 390 μg), after 24 h): 26.80 µg
- Amount of cereulide excreted with the feces ([1]; one pig (13 kg), 30 μg kg^-1 (total intake 390 μg), after 48 h): 1.38 µg
- Total amount of cereulide excreted with the feces ([1]; one pig (13 kg), 30 μg kg^-1 (total intake 390 μg), in 33.6 g feces over 48 h): 49.08 µg
- Cereulide concentration in fecal samples, maximum ([1]; oral challenge, SIDA-MS): up to 5 μg cereulide g^-1 feces
- Overall cereulide excretion in feces, % of total amount ([1]; single oral dose 30 μg kg^-1, within first 48 h): up to 13%
- Time of first detection in fecal samples post-toxin exposure ([1]; single oral dose 150 μg kg^-1): 3 to 4 h
- Cereulide concentration in urine, maximum ([1]; single oral dose 150 μg kg^-1, SIDA-MS): up to 2 ng cereulide mL^-1 urine
- Overall cereulide excretion in feces, % of total quantity administered ([1]; single oral dose 150 μg kg^-1, within first 48 h): up to 15%
- Time of highest toxin amounts excreted with feces ([1]; single oral dose 150 μg kg^-1, exception one pig that did not defecate over 20 h): 16 to 24 h
- Detectability of cereulide in urine ([1]; single oral doses 10 μg kg^-1/30 μg kg^-1, SIDA-MS): not from animals challenged with lower cereulide doses
- Cereulide orally administered that is shed with feces ([1]; within the first 48 h, acute trials): 10–15%
- Low concentrations directly effecting the insulin secretory machinery [2]: 0.25 to 0.5 ng/mL
- Average concentration in content of large intestine, acute 150 μg kg^-1 versus chronic 10 μg kg^-1 daily ([3]; acute high dose over chronic trial): about 15 fold
- Amounts of cereulide in muscle, chronic trial versus acute high dose ([3]; chronic 10 μg kg^-1 daily exceeds acute 150 μg kg^-1): threefold
- Cereulide concentration in content of large intestine, range [3, 5]: 2.04 to 6.78 ng/g
- Cereulide concentration in kidney, range [3, 5]: 0.14 to 0.37 ng/g
- Cereulide concentration in large intestine, range [3, 5]: 1.16 to 5.05 ng/g
- Cereulide concentration in liver, range [3, 5]: 0.06 to 0.24 ng/g
- Cereulide concentration in lymph nodes, range [3, 5]: 0.01 to 0.14 ng/g
- Cereulide concentration in muscle, range [3, 5]: 0 to 2.23 ng/g
- Cereulide concentration in spleen, range [3, 5]: 0.10 to 0.21 ng/g
- Cereulide concentration in subcutaneous fat, range [3, 5]: 0 to 0.08 ng/g
- Cereulide in large intestine and large intestinal contents, maximum [3, 4]: up to 6.8 ng g^-1
- Detectability of cereulide in the small intestine [3, 4]: not detectable
- Passage of the blood-brain-barrier (BBB) ([3]; detection of cereulide in brain samples after oral challenge): can cross the BBB
- tissue level at time at 48 h ([3]; abdominal fat, 150 ug/kg, single oral dose 150 μg kg^-1, necropsy after 48 h, SIDA-MS, read-out: Cereulide concentration in abdominal fat, average): 7.88 ± 4.17 ng/g
- tissue level at time at 48 h ([3]; brain, 150 ug/kg, single oral dose 150 μg kg^-1, necropsy after 48 h, SIDA-MS, read-out: Cereulide concentration in brain, average): 0.73 ± 0.49 ng/g
- tissue level at time at 168 h ([3]; content of large intestine, daily oral dose 10 μg kg^-1 for 7 days, SIDA-MS, read-out: Cereulide concentration in content of large intestine, average): 4.41 ± 2.37 ng/g
- tissue level at time at 48 h ([3]; content of large intestine, 30 ug/kg, single oral dose 30 μg kg^-1, necropsy after 48 h, SIDA-MS, read-out: Cereulide concentration in content of large intestine, average): 0.07 ± 0.03 ng/g
- tissue level at time at 48 h ([3]; content of large intestine, 150 ug/kg, single oral dose 150 μg kg^-1, necropsy after 48 h, SIDA-MS, read-out: Cereulide concentration in content of large intestine, average): 67.9 ± 50.8 ng/g
- tissue level at time at 48 h ([3]; content of small intestine, 150 ug/kg, single oral dose 150 μg kg^-1, necropsy after 48 h, SIDA-MS, read-out: Cereulide concentration in content of small intestine, average): 0.68 ± 0.53 ng/g
- tissue level at time at 168 h ([3]; kidney, daily oral dose 10 μg kg^-1 for 7 days, SIDA-MS, read-out: Cereulide concentration in kidney, average): 0.25 ± 0.12 ng/g
- tissue level at time at 48 h ([3]; kidney, 150 ug/kg, single oral dose 150 μg kg^-1, necropsy after 48 h, SIDA-MS, read-out: Cereulide concentration in kidney, average): 0.21 ± 0.21 ng/g
- tissue level at time at 168 h ([3]; large intestine, daily oral dose 10 μg kg^-1 for 7 days, SIDA-MS, read-out: Cereulide concentration in large intestine, average): 3.11 ± 1.95 ng/g
